According to ChEMBL document CHEMBL1141980, “Novel use of chemical shift in NMR as molecular descriptor: a first report on modeling carbonic anhydrase inhibitory activity and related parameters” (Bioorg Med Chem Lett, 2005):

Assay: Diuretic activity was determined
Assay type: ADME, tissue-based, Urine
Parameters: reference not given here

| pC | Compound |
| --- | --- |
| 0.398 | CC(=O)c1ccc(S(N)(=O)=O)cc1 |
| 0.176 | Cc1cccc(S(N)(=O)=O)c1 |
| -0.036 | CNc1ccc(S(N)(=O)=O)cc1 |
| 0.188 | COc1ccc(S(N)(=O)=O)cc1 |
| 0.301 | Cc1ccccc1S(N)(=O)=O |
| 1 | N#Cc1ccc(S(N)(=O)=O)cc1 |
| 0.267 | NS(=O)(=O)c1ccc(Br)cc1 |
| 0.58 | NS(=O)(=O)c1ccc([N+](=O)[O-])c(C(F)(F)F)c1 |
| 0.824 | NS(=O)(=O)c1ccc([N+](=O)[O-])cc1 |
| 0.301 | NS(=O)(=O)c1ccccc1[N+](=O)[O-] |
| 0.243 | NS(=O)(=O)c1ccc(Cl)c(Cl)c1 |
| 0.678 | NS(=O)(=O)c1cccc([N+](=O)[O-])c1 |
| 0.301 | NS(=O)(=O)c1ccccc1Cl |
| 0.292 | NS(=O)(=O)c1cccc(Cl)c1 |
| 0.322 | NS(=O)(=O)c1ccc(Cl)c([N+](=O)[O-])c1 |
| 0.13 | NS(=O)(=O)c1ccccc1 [BENZENESULFONAMIDE] |
| 0.286 | NS(=O)(=O)c1ccc(Cl)cc1 [P-CHLOROBENZENESULFONAMIDE] |
| 0.182 | Cc1ccc(S(N)(=O)=O)cc1 [P-TOLUENESULFONAMIDE] |
| -0.301 | Nc1ccc(S(N)(=O)=O)cc1 [SULFANILAMIDE] |
